Consider three molecules from patent US9199941B2, “Pyrazole indanyl carboxamides” (BAYER CROPSCIENCE AG, priority 2012, dated 2015).

Molecules are shown by their SMILES.

One data set relates to Alternaria brassicae. The data set is described as follows: In vivo preventive test on Alternaria brassicae (leaf spot on radish). The settings on record: 500 ppm, preventive spray, radish plants, grading 6 days after contamination. The method, then: Radish plants (“Pernod Clair” variety), sown in starter cups on a 50/50 peat soil-pozzolana substrate and grown at 17° C., are treated at the cotyledon stage by spraying with the active ingredient prepared as described above. Plants, used as controls, are treated with the mixture of acetone/tween/DMSO/water not containing the active material. After 24 hours, the plants are contaminated by spraying the cotyledons with an aqueous suspension of Alternaria brassicae spores (50 000 spores per ml). The spores are collected from a 15-day-old culture. […] Grading (% of efficacy) is carried out 6 days after the contamination, in comparison with the control plants.

A further data set deals with Phakopsora pachyrhizi. Nature of the data set: In vivo Phakopsora test (soybeans) / preventive. As to conditions: 10 ppm of active ingredient, evaluated 7 days after the inoculation. The method, then: [table] To produce a suitable preparation of active compound, 1 part by weight of active compound is mixed with the stated amounts of solvent and emulsifier, and the concentrate is diluted with water to the desired concentration. To test for preventive activity, young plants are sprayed with the preparation of active compound at the stated rate of application. […] The plants remain in the incubation cabinet at approximately 24° C. and a relative atmospheric humidity of approximately 80% and a day/night interval of 12 h.

In a further data set the test system is Pyrenophora teres. Nature of the data set: In vivo preventive test on Pyrenophora teres (net blotch on barley). As to conditions: 500 ppm, preventive spray, barley plants, incubated 48 hours then 12 days. The method, then: Barley plants (“Plaisant” variety), sown in starter cups on a 50/50 peat soil-pozzolana substrate and grown at 22° C., are treated at the 1-leaf stage (10 cm height) by spraying with the active ingredient prepared as described above. Plants, used as controls, are treated with the mixture of acetone/tween/DMSO/water not containing the active material. After 24 hours, the plants are contaminated by spraying the leaves with an aqueous suspension of Pyrenophora teres spores (12 000 spores per ml). The spores are collected from a 12-day-old culture.

Data set [1] can be described thus: log P by HPLC on reversed phase columns (EEC directive 79/831 Annex V.A8). In kind it is physicochemical. As to conditions: Table 1, compounds of formula (I); method [a]: LC-MS at pH 2.7, 0.1% formic acid in water / acetonitrile.
The test system of another data set is Septoria tritici. The data set is described as follows: In vivo preventive test on Septoria tritici (leaf spot on wheat). As to conditions: 500 ppm, preventive spray, wheat plants, grading 24 days after contamination. The gist of the method:
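Wheat cv. Scipion at 1-leaf stage (10 cm), grown at 22° C., sprayed preventively with compound; 24 h later inoculated with Septoria tritici spore suspension (500 000 spores per ml). Efficacy (%) graded 24 days post-inoculation versus solvent-treated (acetone/tween/DMSO/water) control plants.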

In another data set the test system is Botrytis cinerea. Nature of the data set: In vivo preventive test on Botrytis cinerea (grey mould), gherkin. As to conditions: 500 ppm, preventive spray, gherkin plants, grading 4 to 5 days after contamination. The method, then:
Gherkin plants (“Vert petit de Paris” variety), sown in starter cups on a 50/50 peat soil-pozzolana substrate and grown at 24° C., are treated at the Z11 cotyledon stage by spraying with the active ingredient prepared as described above. Plants, used as controls, are treated with the mixture of acetone/tween/DMSO/water not containing the active material. After 24 hours, the plants are contaminated by spraying the cotyledons with an aqueous suspension of cryopreserved Botrytis cinerea spores (50 000 spores per ml). The spores are suspended in a nutrient solution composed of 10 g/L of PDB, 50 g/L of D-Fructose, 2 g/L of NH4NO3 and 1 g/L of KH2PO4. The contaminated gherkin plants are incubated at 17° C. and at 90% relative humidity. Grading (% of efficacy) is carried out 4 to 5 days after the contamination, in comparison with the control plants.

The subject of a further data set is Sphaerotheca fuliginea. The data set is described as follows: In vivo preventive test on Sphaerotheca fuliginea (powdery mildew on cucurbits). As to conditions: 500 ppm, preventive spray, gherkin plants, grading 12 days after contamination. A digest of the protocol: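 Gherkin plants at cotyledon stage Z11 sprayed with compound, then inoculated 24 h later with spores at 100 000 per ml. Kept at about 20° C and 70–80% relative humidity; % efficacy graded 12 days post-inoculation versus solvent-treated controls.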

The next data set deals with Puccinia recondita. The data set is described as follows: In vivo preventive test on Puccinia recondita (brown rust on wheat). As to conditions: 500 ppm, preventive spray, wheat plants, grading 12 days after contamination. The method, then:
Plants, used as controls, are treated with the mixture of acetone/tween/DMSO/water not containing the active material. After 24 hours, the plants are contaminated by spraying the leaves with an aqueous suspension of Puccinia […] spores (100 000 spores per ml). […] Grading (% of efficacy) is carried out 12 days after the contamination, in comparison with the control plants.

The next data set has as its system Uromyces appendiculatus. The data set is described as follows: In vivo preventive test on Uromyces appendiculatus (bean rust). As to conditions: 500 ppm, preventive spray, bean plants, grading 11 days after contamination. The gist of the method:
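Saxa bean plants grown at 24° C were sprayed at the 2-leaf stage (9 cm) with compound in acetone/tween/DMSO/water; controls got solvent mix only. Leaves inoculated 24 h later with U. appendiculatus spores (150 000 spores/ml). Efficacy (%) graded 11 days post-inoculation versus controls.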

The subject of data set [2] is Blumeria graminis fsp. hordei. Nature of the data set: In vivo Blumeria test (barley) / preventive. The settings on record: 500 ppm of active ingredient, evaluated 7 days after the inoculation. The method, then:
[table] To produce a suitable preparation of active compound, 1 part by weight of active compound or active compound combination is mixed with the stated amounts of solvent and emulsifier, and the concentrate is diluted with water to the desired concentration. To test for preventive activity, young plants are sprayed with the preparation of active compound or active compound combination at the stated rate of application. After the spray coating has been dried, the plants are dusted with spores of Blumeria graminis fsp. hordei. The plants are placed in the greenhouse at a temperature of approximately 18° C. and a relative atmospheric humidity of approximately 80% to promote the development of mildew pustules.

The test system of the next data set is Venturia inaequalis. Nature of the data set: In vivo Venturia test (apples) / preventive. The settings on record: 100 ppm of active ingredient, evaluated 10 days after the inoculation. The method, then: [table] To produce a suitable preparation of active compound, 1 part by weight of active compound is mixed with the stated amounts of solvent and emulsifier, and the concentrate is diluted with water to the desired concentration. To test for preventive activity, young plants are sprayed with the preparation of active compound at the stated rate of application. […] The plants are then placed in a greenhouse at approximately 21° C. and a relative atmospheric humidity of approximately 90%.

The test system of another data set is Phytophthora infestans. In kind it is in vivo. The settings on record: 500 ppm, preventive spray, tomato plants, grading 5 days after contamination.
Data set [3] concerns Fusarium nivale (var. majus). The data set is described as follows: In vivo Fusarium nivale (var. majus) test (wheat) / preventive. As to conditions: 500 ppm of active ingredient, evaluated 5 days after the inoculation. The method, then: [table] To produce a suitable preparation of active compound, 1 part by weight of active compound or active compound combination is mixed with the stated amounts of solvent and emulsifier, and the concentrate is diluted with water to the desired concentration. To test for preventive activity, young plants are sprayed with the preparation of active compound or active compound combination at the stated rate of application. After the spray coating has been dried, the plants are slightly injured by using a sandblast and afterwards they are sprayed with a conidia suspension of Fusarium nivale (var. majus).

Another data set relates to Pyricularia oryzae. In kind it is in vivo. The settings on record: 500 ppm, preventive spray, rice plants, grading 6 days after contamination.

As for `CC1CC2(CC2)c2cccc(NC(=O)c3cn(C)nc3C(F)F)c21` (stereo not shown) [Example 25], the Eff. % in the data set with Alternaria brassicae is 93%; in the data set with Phakopsora pachyrhizi, 94%; in the data set with Pyrenophora teres, 96%; in the data set on Septoria tritici, 92%; with Botrytis cinerea it was 88%; in the data set with Sphaerotheca fuliginea it was 100%. Further, the results for the Eff. % with Puccinia recondita and with Uromyces appendiculatus were 100% and 99%, respectively. In data set [1], the logP is 3.13[a].
As to `CC1CC(C)c2c(NC(=O)c3cn(C)nc3C(F)F)cccc21` (stereo not shown) [Example 7], the Eff. % in the data set with Alternaria brassicae was determined as 100%; in the data set with Phakopsora pachyrhizi it was 100%; in the data set on Pyrenophora teres, 92%; in the data set with Septoria tritici it was 93%; in the data set with Botrytis cinerea, 100%; in the data set on Sphaerotheca fuliginea, 100%. In addition, the Eff. % in data set [2] was found to be 94%; in the data set on Puccinia recondita, 100%; in the data set with Uromyces appendiculatus, 100%; with Venturia inaequalis it was 100%; with Phytophthora infestans, 99%; in data set [3], 100%. Besides, the logP in data set [1] was 3.04[a].
Regarding `CC1CC(C(C)C)c2cccc(NC(=O)c3cn(C)nc3C(F)F)c21` (stereo not shown) [Example 1], the Eff. % came to 100% with Phakopsora pachyrhizi; 81% in the data set on Pyrenophora teres; 93% with Pyricularia oryzae; 100% with Sphaerotheca fuliginea; 80% in data set [2]; 100% in the data set with Puccinia recondita. Also, the Eff. % in the data set with Uromyces appendiculatus is on record as 100%; in [3], 86%. Moreover, the logP in data set [1] is 3.74[a].
